This note sets out measurements from publication PMC6253765, “Synthesis and Herbicidal Activities of Novel 4-(4-(5-methyl-3-arylisoxazol-4-yl)thiazol-2-yl)piperidyl Carboxamides and Thiocarboxamides” (Molecules, 2009).

pKi: −log10 of the molar value.

For the assay, the target named is T1, D1 protease (CtpA) (Spinacia oleracea, UniProt Q36792).
T1 construct: native spinach CtpA protein purified from spinach thylakoid
T1 sequence (Q36792 147-539): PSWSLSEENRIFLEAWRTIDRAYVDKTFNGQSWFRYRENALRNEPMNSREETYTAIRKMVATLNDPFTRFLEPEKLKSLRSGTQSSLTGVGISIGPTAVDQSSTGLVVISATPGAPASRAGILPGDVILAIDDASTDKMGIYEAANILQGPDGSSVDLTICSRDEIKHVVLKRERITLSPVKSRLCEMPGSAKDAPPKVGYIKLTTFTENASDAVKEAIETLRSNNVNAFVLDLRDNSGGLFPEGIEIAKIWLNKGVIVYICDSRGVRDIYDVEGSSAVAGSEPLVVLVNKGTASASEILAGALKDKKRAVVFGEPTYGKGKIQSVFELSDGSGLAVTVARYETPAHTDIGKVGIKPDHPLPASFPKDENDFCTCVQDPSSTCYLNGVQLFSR
As to the kind of experiment: HPLC assay of cleavage of S24 peptide substrate; Dixon plot. In kind it is biochemical.

On to `CCCCNC(=O)N1CCC(c2nc(-c3c(-c4ccccc4F)noc3C)cs2)CC1` [4m, N-butyl-4-(4-(3-(2-fluorophenyl)-5-methylisoxazol-4-yl)thiazol-2-yl)piperidine-1-carboxamide], for which the negative logarithm of the Ki (pKi) was 5.89.
